Data published in US20110306606A1, “NOVEL 2,6-SUBSTITUTED-3-NITROPYRIDINE DERIVATIVE, METHOD FOR PREPARING SAME, AND PHARMACEUTICAL COMPOSITION INCLUDING SAME” (priority 2008, published 2011).
Like-named read-outs stand apart in the source and are kept apart here.

Legend:
[1] = test system: formation of osteoclasts in co-culture of bone marrow cells and osteoblasts; assay: Osteoclastogenesis inhibition via co-culture system (TRAP staining); type: cell-based, mice; conditions: Mus musculus, Osteoclast, 168 h; 1 μM compound, 7 days co-culture, TRAP-positive multinucleated osteoclasts vs vehicle control
Summary of the method: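 Bone marrow cells from male ddY mice were co-cultured with osteoblasts for 7 days in α-MEM/10% FBS with 10^−8 M 1α,25-dihydroxyvitamin D3 and dexamethasone. Compound was present at 1 μM final and refreshed every 2–3 days. TRAP-positive cells with 6–7 nuclei were counted, with % inhibition relative to DMSO vehicle (n=4).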

[2] = test system: Osteoblasts (Calvarial cells); assay: Alkaline phosphatase (ALP) activity in osteoblasts (Calvarial cells); type: cell-based, mice; conditions: Mus musculus, 72 h; 1 μM compound, 3 days, Calvarial cell; read-out: ALP activity (1 μM, % of Control) Calvarial cell
Summary of the method: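 Primary calvarial osteoblasts or MC3T3-E1 cells in α-MEM with 10% FBS were treated with 1 μM compound, against a 0.1% DMSO vehicle. Cell lysates were incubated with p-nitrophenylphosphate at 37° for 30 minutes and read at 405 nm. ALP activity was expressed as p-nitrophenol/μg protein/min and reported as % change versus vehicle.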

[3] = test system: Osteoblasts (Calvarial cells); conditions: ICR, mouse, 72 h, 1 μM
[4] = test system: MC3T3-E1 cells; assay: Alkaline phosphatase (ALP) activity in MC3T3-E1 cells; type: cell-based; conditions: 1 μM compound, 3 days; for activity at 1 µM: Mus musculus, 72 h, MC3T3-E1 cell, read-out: ALP activity (1 μM, % of Control) MC3T3-E1 cell
Protocol: Differentiation and activity of osteoblasts were indirectly evaluated by measuring an ALP activity having a close relationship with osteogenesis.
Osteoblasts (Calvarial cells) prepared in Experimental Example 1 and MC3T3-E1 cells (available from RIKEN Cell Bank, Japan) were collected in α-MEM supplemented with 10% FBS, followed by cell counting. The cells were dispensed into 24-well cultureware at a density of 2×10^4 cells/well. After culturing of the cells for 24 hours, the culture media were discarded and replaced with fresh media in which test compounds were diluted to a concentration of 1 μM (1 mL/well). In addition, the vehicle control group containing 0.1% DMSO was also treated. […] When the experiment was terminated, the supernatant was removed and the cells were washed three times with cold phosphate buffer at 4°. 0.2% Triton X-100 was added to the washed cells which were then subjected to three cycles of freezing at −70° and thawing at room temperature for the complete lysis of cells. The cell extracts were pooled and centrifuged to collect the cell supernatant which was used for the measurement of ALP activity and proteins. The protein concentration was measured using a BCA assay kit (manufactured by Sigma-Aldrich). For the measurement of ALP activity, p-nitrophenylphosphate was added to the cell supernatant which was then incubated at 37° for 30 minutes, and the reaction was terminated with the addition of 50 μL of 0.2N sodium hydroxide. The standard curve was plotted at the absorbance of 405 nm using p-nitrophenol as a standard material and then the absorbance of test materials thus reacted was measured to determine the production amount of p-nitrophenol.
The ALP activity was calculated by dividing the amount of p-nitrophenol produced from each test material by the protein amount and the reaction time. Therefore, the unit of ALP activity was given in terms of p-nitrophenol/μg protein/min. The results are given in Tables 28-1 and 28-2 where the ALP activity unit of each test material was given in terms of % change through the comparison between the individual test materials and the vehicle control group.

[5] = test system: Osteoblasts (Calvarial cells); assay: Cytotoxicity test (MTT); conditions: 1 μM compound, 72 hours, in comparison with vehicle control

Compound	inhibition at 1 µM [1] [%]	activity at 1 µM [2] [%]	Cell viability (%) Calvarial cell [3] [%]	activity at 1 µM [4] [%]	ALP activity (1 μM, % of Control) MC3T3-E1 cell [4]	Cell viability (%) Calvarial cell [5] [%]
Cc1ccc(Nc2nc(N3CCC(N)CC3)ccc2[N+](=O)[O-])cc1 [Compound 13, 2-(4-methylphenylamino)-6-(4-aminopiperidino)-3-nitropyridine]	92	115	97			
COc1ccc(Nc2nc(NC(C)C)ccc2[N+](=O)[O-])cc1 [Compound 16, 2-(4-methoxyphenylamino)-6-(isopropylamino)-3-nitropyridine]			100	118		
COc1ccc(Nc2nc(N(C)CC3OCCO3)ccc2[N+](=O)[O-])cc1 [Compound 18, 2-(4-methoxyphenylamino)-6-[(N-[1,3]-dioxolan-2-ylmethyl)methylamino]-3-nitropyridine]					113 % of Control	91
COc1ccc(Nc2nc(N3CCN=C3C)ccc2[N+](=O)[O-])cc1 [Compound 20, 2-(4-methoxyphenylamino)-6-[(2-methyl-4,5-dihydro)imidazol-1-yl]-3-nitropyridine]					124 % of Control	
COc1ccc(Nc2nc(-n3ccnc3C(C)C)ccc2[N+](=O)[O-])cc1 [Compound 21, 2-(4-methoxyphenylamino)-6-[(2-isopropyl)imidazol-1-yl]-3-nitropyridine]			90	124		
COc1ccc(Nc2nc(NCc3ccncc3)ccc2[N+](=O)[O-])cc1 [Compound 22, 2-(4-methoxyphenylamino)-6-[(4-pyridyl)methylamino]-3-nitropyridine]		121	92	123		
CC(C)(C)c1ccc(Nc2nc(N3CCC(N)CC3)ccc2[N+](=O)[O-])cc1 [Compound 43, 2-[4-(t-butyl)phenylamino]-6-(4-aminopiperidino)-3-nitropyridine]	100	121	114			
CNc1ccc([N+](=O)[O-])c(Nc2ccc(C#N)cc2)n1 [Compound 45, 2-(4-cyanophenylamino)-6-(methylamino)-3-nitropyridine]		133	89	124		
N#Cc1ccc(Nc2nc(N3CCC(O)CC3)ccc2[N+](=O)[O-])cc1 [Compound 47, 2-(4-cyanophenylamino)-6-(4-hydroxypiperidino)-3-nitropyridine]		111	88	117		
CC(C)c1nccn1-c1ccc([N+](=O)[O-])c(Nc2ccc(C#N)cc2)n1 [Compound 49, 2-(4-cyanophenylamino)-6-[(2-isopropyl)imidazol-1-yl]-3-nitropyridine]		112	96	122		
CC(C)CNc1ccc([N+](=O)[O-])c(Nc2ccc(N)cc2)n1 [Compound 59, 2-[4-(amino)phenylamino]-6-(isobutylamino)-3-nitropyridine]	81	115	99			
O=[N+]([O-])c1ccc(NCCCn2ccnc2)nc1Nc1ccc(-n2ccnc2)cc1 [Compound 95, 2-[4-(imidazol-1-yl)phenylamino]-6-[(3-imidazol-1-yl)propylamino]-3-nitropyridine]		138	93	185		
CNc1ccc([N+](=O)[O-])c(Nc2cccc(C(C)=O)c2)n1 [Compound 96, 2-(3-acetylphenylamino)-6-(methylamino)-3-nitropyridine]			90	137		
CC(=O)c1cccc(Nc2nc(NC(C)C)ccc2[N+](=O)[O-])c1 [Compound 97, 2-(3-acetylphenylamino)-6-(isopropylamino)-3-nitropyridine]	80	188	114			
CC(=O)c1cccc(Nc2nc(N3CCN=C3C)ccc2[N+](=O)[O-])c1 [Compound 100, 2-(3-acetylphenylamino)-6-[(2-methyl-4,5-dihydro)imidazol-1-yl]-3-nitropyridine]					126 % of Control	91
CC(=O)c1cccc(Nc2nc(-n3ccnc3C(C)C)ccc2[N+](=O)[O-])c1 [Compound 101, 2-(3-acetylphenylamino)-6-[(2-isopropyl)imidazol-1-yl]-3-nitropyridine]			92	123		
CC(=O)c1cccc(Nc2nc(NCc3cccnc3)ccc2[N+](=O)[O-])c1 [Compound 102, 2-(3-acetylphenylamino)-6-[(3-pyridyl)methylamino]-3-nitropyridine]		122	92	126		
CC(=O)c1cccc(Nc2nc(N3CCNCC3)ccc2[N+](=O)[O-])c1 [Compound 106, 2-(3-acetylphenylamino)-6-(piperazin-1-yl)-3-nitropyridine]	87	116	81			
CNc1ccc([N+](=O)[O-])c(Nc2ccc(N3CCOCC3)cc2)n1 [Compound 108, 2-(4-morpholinophenylamino)-6-(methylamino)-3-nitropyridine]			100	111		
O=[N+]([O-])c1ccc(NCCCn2ccnc2)nc1Nc1ccc(N2CCOCC2)cc1 [Compound 119, 2-(4-morpholinophenylamino)-6-[(3-imidazol-1-yl)propylamino]-3-nitropyridine]			107	167		
O=[N+]([O-])c1ccc(N2CCNCC2)nc1Nc1ccc(N2CCOCC2)cc1 [Compound 120, 2-(4-morpholinophenylamino)-6-(piperazin-1-yl)-3-nitropyridine]	63	115	94			
NC1CCN(c2ccc([N+](=O)[O-])c(Nc3ccc(N4CCOCC4)cc3)n2)CC1 [Compound 121, 2-(4-morpholinophenylamino)-6-(4-aminopiperidino)-3-nitropyridine]	89	127	100			
CNc1ccc([N+](=O)[O-])c(Nc2ccc(-c3csc(C)n3)cc2)n1 [Compound 132, 2-[4-(2-methylthiazol-4-yl)phenylamino]-6-(methylamino)-3-nitropyridine]	80	198	101			
Cc1nc(-c2ccc(Nc3nc(N4CCC(O)CC4)ccc3[N+](=O)[O-])cc2)cs1 [Compound 135, 2-[4-(2-methylthiazol-4-yl)phenylamino]-6-(4-hydroxypiperidino)-3-nitropyridine]	93	113	106			
Cc1nc(-c2ccc(Nc3nc(NCc4cccnc4)ccc3[N+](=O)[O-])cc2)cs1 [Compound 138, 2-[4-(2-methylthiazol-4-yl)phenylamino]-6-[(3-pyridyl)methylamino]-3-nitropyridine]	98	121	94			
Cc1nc(-c2ccc(Nc3nc(NCc4ccncc4)ccc3[N+](=O)[O-])cc2)cs1 [Compound 139, 2-[4-(2-methylthiazol-4-yl)phenylamino]-6-[(4-pyridyl)methylamino]-3-nitropyridine]	99	122	95			
Cc1nc(-c2ccc(Nc3nc(N4CCOCC4)ccc3[N+](=O)[O-])cc2)cs1 [Compound 145, 2-[4-(2-methylthiazol-4-yl)phenylamino]-6-morpholino-3-nitropyridine]	94	117	96			
